Patent US20110166149A1, “PTERIDINE DERIVATIVES FOR TREATING RESPIRATORY DISEASE” (TARGEGEN INC., priority 2008, published 2011)
Where two headings read alike, the source gives them in different places.

Test: Inhalation exposure: Compound A concentration in lung, plasma and BALF (Example 2)
Format: in vivo, BALB/c mice
Details: for AUC(0-inf) / Cmax / Tmax / AUC(0-t) / concentration at 0.083 h / concentration at 0.25 h / concentration at 0.5 h / concentration at 1 h / concentration at 2 h / concentration at 4 h / concentration at 8 h / concentration at 12 h / concentration at 24 h: male, BALB/c; for AUC(0-inf) / Cmax / Tmax / AUC(0-t): inhaled or intranasal; for AUC(0-t): read-out: AUC(0-24); for concentration at 0.083 h / concentration at 0.25 h / concentration at 0.5 h / concentration at 1 h / concentration at 2 h / concentration at 4 h / concentration at 8 h / concentration at 12 h / concentration at 24 h: mouse, inhaled, mice, 30 min inhalation
Procedure: A series of compositions for pulmonary delivery were prepared by making a 20% suspension of compound A in a 5% tyloxapol solution in water. Particle size reduction was achieved using a colloid mill (magicLAB®, MK module, for 6 hours @ 12,000 rpm, while maintaining a temperature below 50° C.). Samples at 4% w/v compound A were prepared by dilution with DI water.
Low (0.02 mg/L), mid (0.07 mg/L), and high (0.20 mg/L) target aerosol concentrations 0.3% Compound A/0.075% tyloxapol, 0.6% Compound A/0.15% tyloxapol, and 1.5% Compound A/0.375% tyloxapol suspensions were used. These low, mid, and high target formulations were prepared as follows: […]
4% compound A and 1% tyloxapol were removed from refrigeration and approximately 2.25, 4.5, and 12 mL were transferred into clean 50 mL graduated plastic tubes, labeled 0.3% A/0.075% tyloxapol, 0.6% A/0.15% tyloxapol, and 1.5% A/0.375% tyloxapol suspensions and allowed to warm to room temperature. Each was diluted to 20 mL with ultra pure water and vortexed until completely mixed. Each formulation was made the morning of exposure to alleviate any storing/stability issues.
Eighty-seven (87) male BALB/c mice (8 weeks of age on arrival and 18.6-24.6 g on exposure day) were purchased from Charles River Laboratories (Raleigh, N.C.). The three animals with the lowest body weights and the three with the highest body weights were excluded from the study on the day of randomization. The remaining eighty-one (81) animals were assigned to the study. Temperatures and relative humidity (RH) in animal housing areas were within the target range specified in the protocol.
Animals were exposed to one of three concentrations of Compound A aerosols for a target of 30 min.
The actual concentrations of test article in the exposure atmospheres were determined by chemical analysis of timed filter samples collected directly from a nose-only exposure port during exposure. In addition, one impactor sample was obtained to verify particle size distribution (PSD), which is characterized by mass median aerodynamic diameter (MMAD) and geometric standard deviation (GSD). The filters and impactor stages were analyzed chemically by LRRI and are described below.

[1] = 0.15 mg/kg, mouse BALF, aerosol conc. 0.02 mg/L
[2] = 0.27 mg/kg, mouse BALF, aerosol conc. 0.07 mg/L
[3] = 0.7 mg/kg, mouse BALF, aerosol conc. 0.2 mg/L
[4] = mouse lung, aerosol conc. 0.02 mg/L
[5] = mouse lung, aerosol conc. 0.07 mg/L
[6] = mouse lung, aerosol conc. 0.2 mg/L
[7] = BALF, nominal aerosol 0.02 mg/L, read-out: Compound A concentration BALF
[8] = BALF, nominal aerosol 0.07 mg/L, read-out: Compound A concentration BALF
[9] = BALF, nominal aerosol 0.2 mg/L, read-out: Compound A concentration BALF
[10] = lung, nominal aerosol 0.02 mg/L, read-out: Compound A concentration Lung

Nc1nc(N)c2nc(-c3cccc(O)c3)c(-c3cccc(O)c3)nc2n1 [Compound A, 6,7-bis(3-hydroxyphenyl)-pteridine-2,4-diamine]
time course of concentration in lung and BALF (FIGS. 1 and 2, higher concentrations for mice exposed to higher doses): dose dependent
Maximum concentration in the BALF (Group A (0.02 mg/L)): 1190 ng/mL
Maximum concentration in the lung (Group A (0.02 mg/L)): 20.9 µg/g
time of maximum concentration in the BALF (Group A (0.02 mg/L)): 0.25 h
time of maximum concentration in the lung (Group A (0.02 mg/L)): 0.08 h
Maximum concentration in the BALF (Group B (0.07 mg/L)): 2140 ng/mL
time of maximum concentration in the BALF (Group B (0.07 mg/L)): 0.08 h
time of maximum concentration in the lung (Group B (0.07 mg/L)): 2.00 h
Maximum concentration in the BALF (Group C (0.2 mg/L)): 5670 ng/mL
time of maximum concentration in the BALF (Group C (0.2 mg/L)): 0.25 h
time of maximum concentration in the lung (Group C (0.2 mg/L)): 0.50 h
plasma levels (all aerosol concentrations, generally): < LLOQ
AUC(0-inf) [1]: 21700 ng·h/mL
Cmax [1]: 1190 ng/mL
Tmax [1]: 15 min
AUC(0-t) [1]: 8850 ng·h/mL
AUC(0-inf) [2]: 30400 ng·h/mL
Cmax [2]: 2140 ng/mL
Tmax [2]: 4.8 min
AUC(0-t) [2]: 18100 ng·h/mL
AUC(0-inf) [3]: 54300 ng·h/mL
Cmax [3]: 5670 ng/mL
Tmax [3]: 15 min
AUC(0-t) [3]: 37200 ng·h/mL
Cmax [4]: 20900 ng/g
Tmax [4]: 4.8 min
Cmax [5]: 22700 ng/g
Tmax [5]: 120 min
Cmax [6]: 67200 ng/g
Tmax [6]: 30 min
concentration at 0.083 h [7]: 896 ± 41.7 ng/mL
concentration at 0.25 h [7]: 1190 ± 35.4 ng/mL
concentration at 0.5 h [7]: 457 ± 219 ng/mL
concentration at 1 h [7]: 831 ± 288 ng/mL
concentration at 2 h [7]: 813 ± 117 ng/mL
concentration at 4 h [7]: 541 ± 409 ng/mL
concentration at 8 h [7]: 286 ± 156 ng/mL
concentration at 12 h [7]: 296 ± 19.1 ng/mL
concentration at 24 h [7]: 223 ± 91.2 ng/mL
concentration at 0.083 h [8]: 2140 ± 1340 ng/mL
concentration at 0.25 h [8]: 1190 ± 270 ng/mL
concentration at 0.5 h [8]: 1350 ± 559 ng/mL
concentration at 1 h [8]: 1250 ± 359 ng/mL
concentration at 2 h [8]: 930 ± 818 ng/mL
concentration at 4 h [8]: 1310 ± 1010 ng/mL
concentration at 8 h [8]: 800 ± 225 ng/mL
concentration at 12 h [8]: 569 ± 142 ng/mL
concentration at 24 h [8]: 512 ± 128 ng/mL
concentration at 0.083 h [9]: 3150 ± 110 ng/mL
concentration at 0.25 h [9]: 5670 ± 2550 ng/mL
concentration at 0.5 h [9]: 2220 ± 1910 ng/mL
concentration at 1 h [9]: 2570 ± 2030 ng/mL
concentration at 2 h [9]: 3190 ± 2580 ng/mL
concentration at 4 h [9]: 3350 ± 687 ng/mL
concentration at 8 h [9]: 1370 ± 185 ng/mL
concentration at 12 h [9]: 1050 ± 799 ng/mL
concentration at 24 h [9]: 694 ± 56 ng/mL
concentration at 0.083 h [10]: 20900 ± 13200 ng/g
concentration at 0.25 h [10]: 10100 ± 1390 ng/g
concentration at 0.5 h [10]: 11700 ± 8050 ng/g
concentration at 1 h [10]: 11800 ± 7260 ng/g
